Like-named read-outs stand apart in the source and are kept apart here.
What was measured:
BCRP1 = BCRP1 efflux transport; type: in vitro ADME; conditions: calculated from literature data, PAZ 5 μM, 60-120 min; ref Minocha et al., 2012
[1] = Effect of NaTC (bile salt) concentration on solubility; type: physicochemical; conditions: for solubility at 2 h: pH 5.5, read-out: Solubility at Fasted state
Method: After incubation of 2 h, 1 ml aliquot of each sample was withdrawn from the tube. The samples were filtered using a 0.22 μm filter, the first 0.8 ml was discarded, and the remaining 0.2 ml was analyzed by the HPLC. The specific experiments containing different conditions are as follows: • i) Solubility testing in simulated fasted and fed media
In this experiment, a final pH of 5.5 was used, representing a mean front luminal pH at fed state.

OCT1 = tested on: OCT1; set-up: method as in Ellawatty et al., 2018; conditions: ref Ellawatty et al., 2018; cited from earlier work
CYP2B6 = conditions: ref Food and Drug Administration, 2009; Yamada et al., 2020; cited from earlier work
[2] = cited from earlier work
[3] = ref Verheijen et al., 2017, cited from earlier work
[4] = ref Food and Drug Administration, 2009, cited from earlier work
[5] = cited from earlier work; for Solubility: ref Herbrink et al., 2018; for LogP: 2022
[6] = Physicochemical parameters (literature / model input); conditions: mean value of literature values, used in the model
OATP1B1 = conditions: ref Xu et al., 2010; cited from earlier work
CYP3A4 = conditions: 2020, cited from earlier work
CYP3D6 = conditions: ref Food and Drug Administration, 2009; Yamada et al., 2020; cited from earlier work
UGT1A1 = conditions: ref Xu et al., 2010; cited from earlier work
[7] = cited from earlier work; remark: listed apart in the source
[8] = 50 mg OD for 21 consecutive days, Day 1, ref Hurwitz et al., 2009
[9] = 50 mg OD for 21 consecutive days, Day 22, ref Hurwitz et al., 2009
[10] = 100 mg OD for 21 consecutive days, Day 1, ref Hurwitz et al., 2009
[11] = 100 mg OD for 21 consecutive days, Day 22, ref Hurwitz et al., 2009
[12] = 200 mg OD for 21 consecutive days, Day 1, ref Hurwitz et al., 2009
[13] = 200 mg OD for 21 consecutive days, Day 22, ref Hurwitz et al., 2009
[14] = 300 mg twice daily for 21 consecutive days, Day 1, ref Hurwitz et al., 2009
[15] = 300 mg twice daily for 21 consecutive days, Day 22, ref Hurwitz et al., 2009
[16] = 400 mg OD for 21 consecutive days, Day 1, ref Hurwitz et al., 2009
[17] = 400 mg OD for 21 consecutive days, Day 22, ref Hurwitz et al., 2009
[18] = 400 mg oral suspension, ref Heath et al., 2012
[19] = 400 mg tablet, arithmetic mean (range), ref Deng et al., 2013
[20] = 400 mg twice daily for 21 consecutive days, Day 1, ref Hurwitz et al., 2009
[21] = 400 mg twice daily for 21 consecutive days, Day 22, ref Hurwitz et al., 2009
[22] = 400 mg whole tablet, ref Heath et al., 2012
[23] = 600 mg OD for 21 consecutive days, Day 1, ref Hurwitz et al., 2009
[24] = 600 mg OD for 21 consecutive days, Day 22, ref Hurwitz et al., 2009
[25] = 800 mg OD for 21 consecutive days, Day 1, ref Hurwitz et al., 2009
[26] = 800 mg OD for 21 consecutive days, Day 22, ref Hurwitz et al., 2009
[27] = 1000 mg OD for 21 consecutive days, Day 1, ref Hurwitz et al., 2009
[28] = 1000 mg OD for 21 consecutive days, Day 22, ref Hurwitz et al., 2009
[29] = 1400 mg OD for 21 consecutive days, Day 1, ref Hurwitz et al., 2009
[30] = 1400 mg OD for 21 consecutive days, Day 22, ref Hurwitz et al., 2009
[31] = 2000 mg OD for 21 consecutive days, Day 1, ref Hurwitz et al., 2009
[32] = 2000 mg OD for 21 consecutive days, Day 22, ref Hurwitz et al., 2009
[33] = ref Food and Drug Administration, 2009

Structure (SMILES): Cc1ccc(Nc2nccc(N(C)c3ccc4c(C)n(C)nc4c3)n2)cc1S(N)(=O)=O [PAZ, pazopanib]
- BCRP1 Vmax (BCRP1): 2.5 pmol/min
- Increase of solubility with NaTC ([1]; 15 mM compared with 30 mM NaTC): about 4 fold
- solubility at 2 h ([1]; biorelevant medium with sodium taurocholate (NaTC), 37 °C, pH 5.5, fassgf or other biorelevant, thermodynamic from solid, NaTC 3.75 mM): 1.51 µg/mL
- solubility at 2 h ([1]; biorelevant medium with sodium taurocholate (NaTC), 37 °C, pH 5.5, fassgf or other biorelevant, thermodynamic from solid, NaTC 15 mM): 6.93 µg/mL
- solubility at 2 h ([1]; biorelevant medium with sodium taurocholate (NaTC), 37 °C, pH 5.5, fassgf or other biorelevant, thermodynamic from solid, NaTC 30 mM): 27.9 µg/mL
- solubility at 2 h ([1]; biorelevant medium with sodium taurocholate (NaTC), pH 5.5, NaTC 7.5 mM): 3.02 µg/mL
- solubility at 2 h ([1]; medium with 0 mM NaTC, 37 °C, pH 5.5, fassgf or other biorelevant, thermodynamic from solid, NaTC 0 mM): 0.36 µg/mL
- Km (OCT1): 3.47 µM
- OCT1 Vmax (OCT1): 530 pmol/min/mg protein
- Inducer of CYP2B6 (CYP2B6): moderate inducer
- AUC0-24, Observation [2, 8]: 51.8 µg·h/mL
- Cmax, Observation [2, 8]: 3.3 µg/mL
- Ctrough, Observation [2, 8]: 1500 ng/mL
- Tmax, Observation [2, 8]: 3.0 h
- AUC504-528, Observation [2, 9]: 157.7 µg·h/mL
- Cmax, Observation [2, 9]: 8.4 µg/mL
- Ctrough, Observation [2, 9]: 5100 ng/mL
- Tmax, Observation [2, 9]: 3.0 h
- AUC0-24, Observation [2, 10]: 96.9 µg·h/mL
- Cmax, Observation [2, 10]: 6.5 µg/mL
- Ctrough, Observation [2, 10]: 2800 ng/mL
- Tmax, Observation [2, 10]: 4.0 h
- AUC504-528, Observation [2, 11]: 160.7 µg·h/mL
- Cmax, Observation [2, 11]: 11.0 µg/mL
- Ctrough, Observation [2, 11]: 4900 ng/mL
- Tmax, Observation [2, 11]: 8.0 h
- AUC0-24, Observation [2, 12]: 104.5 µg·h/mL
- Cmax, Observation [2, 12]: 7.5 µg/mL
- Ctrough, Observation [2, 12]: 2900 ng/mL
- Tmax, Observation [2, 12]: 3.0 h
- AUC504-528, Observation [2, 13]: 384.8 µg·h/mL
- Cmax, Observation [2, 13]: 23.7 µg/mL
- Ctrough, Observation [2, 13]: 12400 ng/mL
- Tmax, Observation [2, 13]: 2.0 h
- AUC0-24, Observation [2, 14]: 120.1 µg·h/mL
- Cmax, Observation [2, 14]: 8.4 µg/mL
- Ctrough, Observation [2, 14]: 4100 ng/mL
- Tmax, Observation [2, 14]: 4.0 h
- Cmax, Observation [2, 15]: 36.7 µg/mL
- Ctrough, Observation [2, 15]: 29500 ng/mL
- Tmax, Observation [2, 15]: 4.0 h
- AUC0-24, Observation [2, 16]: 142.8 µg·h/mL
- Cmax, Observation [2, 16]: 10.3 µg/mL
- Ctrough, Observation [2, 16]: 3900 ng/mL
- Tmax, Observation [2, 16]: 4.0 h
- AUC504-528, Observation [2, 17]: 447.1 µg·h/mL
- Cmax, Observation [2, 17]: 21.8 µg/mL
- Ctrough, Observation [2, 17]: 10400 ng/mL
- Tmax, Observation [2, 17]: 3.0 h
- AUC0-72, Observation [2, 18]: 471.1 (NC) μg h mL^−1
- C24, Observation [2, 18]: 7.8 (NC) μg mL^−1
- Cmax, Observation [2, 18]: 12.7 (NC) μg mL^−1
- Tmax, Observation [2, 18]: 2.7 (NC) h
- AUC0-72, Observation [2, 19]: 335.2 (259–582) μg h mL^−1
- Cmax, Observation [2, 19]: 10.8 (7.3–12.5) μg mL^−1
- Tmax, Observation [2, 19]: 8.0 (4.0–10.0) h
- C24, Observation ([2]; 400 mg tablet, ref Deng et al., 2013): 5.8 (NC) μg mL^−1
- AUC0-24, Observation [2, 20]: 365.4 µg·h/mL
- Cmax, Observation [2, 20]: 6.5 µg/mL
- Ctrough, Observation [2, 20]: 3300 ng/mL
- Tmax, Observation [2, 20]: 3.0 h
- Cmax, Observation [2, 21]: 36.1 µg/mL
- Ctrough, Observation [2, 21]: 28100 ng/mL
- Tmax, Observation [2, 21]: 3.1 h
- AUC0-72, Observation [2, 22]: 410.3 (NC) μg h mL^−1
- C24, Observation [2, 22]: 7.6 (NC) μg mL^−1
- Cmax, Observation [2, 22]: 12.4 (NC) μg mL^−1
- Tmax, Observation [2, 22]: 3.8 h
- AUC0-24, Observation [2, 23]: 157.6 µg·h/mL
- Cmax, Observation [2, 23]: 11.2 µg/mL
- Ctrough, Observation [2, 23]: 4700 ng/mL
- Tmax, Observation [2, 23]: 3.0 h
- AUC504-528, Observation [2, 24]: 333.7 µg·h/mL
- Cmax, Observation [2, 24]: 18.2 µg/mL
- Ctrough, Observation [2, 24]: 11000 ng/mL
- Tmax, Observation [2, 24]: 6.0 h
- AUC0-24, Observation [2, 25]: 275.1 µg·h/mL
- Cmax, Observation [2, 25]: 19.4 µg/mL
- Ctrough, Observation [2, 25]: 9400 ng/mL
- Tmax, Observation [2, 25]: 3.5 h
- AUC504-528, Observation [2, 26]: 743.3 µg·h/mL
- Cmax, Observation [2, 26]: 45.1 µg/mL
- Ctrough, Observation [2, 26]: 24000 ng/mL
- Tmax, Observation [2, 26]: 2.0 h
- AUC0-24, Observation [2, 27]: 400.0 µg·h/mL
- Cmax, Observation [2, 27]: 36.1 µg/mL
- Ctrough, Observation [2, 27]: 12200 ng/mL
- Tmax, Observation [2, 27]: 2.0 h
- AUC504-528, Observation [2, 28]: 796.1 µg·h/mL
- Cmax, Observation [2, 28]: 53.2 µg/mL
- Ctrough, Observation [2, 28]: 28800 ng/mL
- Tmax, Observation [2, 28]: 4.5 h
- AUC0-24, Observation [2, 29]: 291.6 µg·h/mL
- Cmax, Observation [2, 29]: 20.8 µg/mL
- Ctrough, Observation [2, 29]: 8200 ng/mL
- Tmax, Observation [2, 29]: 3.0 h
- AUC504-528, Observation [2, 30]: 536.2 µg·h/mL
- Cmax, Observation [2, 30]: 32.7 µg/mL
- Ctrough, Observation [2, 30]: 16600 ng/mL
- Tmax, Observation [2, 30]: 2.0 h
- AUC0-24, Observation [2, 31]: 681.2 µg·h/mL
- Cmax, Observation [2, 31]: 44.5 µg/mL
- Ctrough, Observation [2, 31]: 12200 ng/mL
- Tmax, Observation [2, 31]: 4.0 h
- AUC504-528, Observation [2, 32]: 860.3 µg·h/mL
- Cmax, Observation [2, 32]: 52.7 µg/mL
- Ctrough, Observation [2, 32]: 28800 ng/mL
- Tmax, Observation [2, 32]: 3.0 h
- Slope of AUC vs dose, clinically determined value [2, 33]: 0.46
- fup, fraction of free drug in plasma [3]: 0.011% ([Verheijen et al., 2017])
- fup, fraction of free drug in plasma ([3]; value used in the model): 0.00011
- Incidence of high blood pressure ([4]; Ctrough above 32 μg/ml): ~80%
- Probability of ALT elevation ([4]; Ctrough above approximately 56 μg/ml): ~20%
- Cmax threshold of clinical exposure-toxicity [4]: less than 56 μg/ml
- Ctrough needed for sufficient clinical response [4]: above 15 μg/ml
- Ctrough threshold of clinical exposure-toxicity [4]: < 32000 ng/mL
- Solubility ([5]; above pH 4.0): practically insoluble
- Solubility ([5]; pH = 1.0): very slight solubility
- Biopharmaceutics Classification System (BCS) class ([5]; ref Evaluation, 1997): class II
- LogP ([5]; ref Krens et al.): 3.33
- LogP ([5]; ref PMDA): 3.65
- LogP [6]: 3.49
- IC50 (OATP1B1): 790 nM
- Inducer of CYP3A4 (CYP3A4; ref Food and Drug Administration, 2009, Yamada et al.): moderate inducer
- Emax CYP3A4, maximum inductive effect (CYP3A4; ref Yamada et al.): 2.43 µM
- Inhibitor of CYP3D6 (CYP3D6): weak inhibitor
- IC50 (UGT1A1): 1200 nM
- Mean oral bioavailability ([7]; oral 800 mg dose in humans, ref Deng et al., 2013): approximately 21.4%
- Elimination via feces, administered radioactivity dose ([7]; ref Deng et al., 2013): approximately 82.2%
- Elimination via feces, unchanged drug ([7]; ref Deng et al., 2013): 67%
- Renal elimination, of the administered dose ([7]; ref Deng et al., 2013): approximately 2.6%
- Higher bioavailability of 400 mg dose than 800 mg dose [7, 33]: 40%

— paper PMC9510668 (Frontiers in Pharmacology, 2022)
